Laboratory results: US7572801B2, “Pyridopyrimidinone derivatives which are HM74A agonists” (Hoffmann-La Roche Inc., priority 2007, dated 2009)

target: T1, HM74A (Homo sapiens, UniProt Q8TDS4); assay: Secondary fluorescent calcium indicator assay (FLIPR); format: cell-based; settings: stable transfected HEK-293 cells expressing HM74A and chimeric G protein Gqi9
T1 construct: expressed in transfected cells; host or cells: HEK-293, stably transfected (pcDNA3.1 vectors), co-expressing chimeric G protein Gqi9
T1 sequence (Q8TDS4 whole entry): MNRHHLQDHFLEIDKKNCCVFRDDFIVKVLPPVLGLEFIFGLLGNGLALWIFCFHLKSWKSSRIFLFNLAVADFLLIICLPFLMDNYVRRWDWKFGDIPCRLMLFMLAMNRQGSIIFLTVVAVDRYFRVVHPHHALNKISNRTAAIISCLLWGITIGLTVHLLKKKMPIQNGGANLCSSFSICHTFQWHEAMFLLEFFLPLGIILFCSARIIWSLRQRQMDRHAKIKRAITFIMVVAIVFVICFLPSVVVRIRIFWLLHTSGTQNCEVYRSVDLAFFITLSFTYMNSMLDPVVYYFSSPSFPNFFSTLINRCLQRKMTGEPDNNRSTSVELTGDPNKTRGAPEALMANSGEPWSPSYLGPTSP
Method: Secondary Fluorescent Calcium Indicator Assay (FLIPR)
HEK-293 cells were grown in tissue culture medium (DMEM/Nut mix F12 Medium with Glutamax I (Invitrogen), containing 10% FBS) at 37° C. in a 5% CO2 atmosphere. These cells were cultured in 6-well dishes at 3×10^5 cells/well and double transfected with DNA vectors (pcDNA3.1, Invitrogen) expressing either HM74A or HM74 and the chimeric G protein Gqi9. Two days after transfection the wells were combined and plated in 150 cm^2 flasks, in the presence of 50 μg/ml Hygromycin (Invitrogen) and 500 μg/ml Geneticin (Gibco). Fourteen days after plating, colonies were picked, expanded and analyzed for expression using a functional assay (FLIPR). Stable transfected HEK-293 cells expressing either HM74A or HM74 and the chimeric G protein Gqi9 were plated at 50,000 cells/well in black 96-well plates with clear bottom (Costar) and cultured to confluency overnight in growth media (DMEM/Nut mix F12 Medium with Glutamax I (Invitrogen), containing 10% FBS) at 37° C. in a humidified cell incubator containing 5% CO2. Growth media was aspirated and replaced with 100 μl of 1× FLIPR Calcium Assay Dye (Molecular Devices) in Hank's balanced salt solution (HBSS) containing 10 mM HEPES, and […] probenecid (Sigma), for 1 hour at 37° C. Cell plates were transferred to a FLIPR unit (Molecular Devices), and 50 μl of 3× compound dilution were added. Fluorescence emissions were measured and the effects of compounds were expressed as % stimulation of maximal nicotinic acid response (100 μM). Sigmoidal curves were fitted using the XLfit3 program (ID Business Solutions Ltd. UK) and EC50 values determined.

**Q.** For `COc1ccc(CCCOc2nc3ncccc3c(=O)[nH]2)cc1` [Example 28, 2-[3-(4-Methoxy-phenyl)-propoxy]-3H-pyrido[2,3-d]pyrimidin-4-one], which EC50 is on record?
**A.** 2.71 µM

**Q.** How did the EC50 turn out when `Cc1ccccc1OCCCOc1nc2ncccc2c(=O)[nH]1` [Example 58, 2-(3-o-Tolyloxy-propoxy)-3H-pyrido[2,3-d]pyrimidin-4-one] was run?
**A.** 0.426 µM

**Q.** `O=c1[nH]c(COc2ccccc2)nc2ncccc12` [Example 2, 2-Phenoxymethyl-3H-pyrido[2,3-d]pyrimidin-4-one] was tested. Which EC50 did it give?
**A.** 5.71 µM
